Laboratory results reported in ChEMBL document CHEMBL1201862, “PubChem BioAssay data set” (2004).
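Compound exposure: 48 hours, 5 concentrations, 96-well plates. GI50 marks 50% less growth.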 Active and inactive are the calls of the source. Rule as the data show it: active = GI50 up to about 1.1 µM and inactive = higher.

What was measured:
Experiment in all cases: DTP human tumour cell line panel, 48 h
[1] = test system: A549
[2] = test system: RPMI-8226
[3] = test system: OVCAR-3
[4] = test system: HCT-116
[5] = test system: EKVX
[6] = test system: OVCAR-8
[7] = test system: KM12
[8] = test system: MDA-MB-435
[9] = test system: HOP-62
[10] = test system: TK-10
[11] = test system: MDA-MB-231
[12] = test system: SF-268
[13] = test system: MDA-N
[14] = test system: HT-29
[15] = test system: UACC-257
[16] = test system: CCRF-CEM
[17] = test system: SK-MEL-28
[18] = test system: OVCAR-5
[19] = test system: M19-MEL
[20] = test system: A498

O/N=N/c1cnccn1
GI50 [1]: > 1250 µM (inactive)
GI50 [2]: > 1250 µM (inactive)
GI50 [3]: > 1250 µM (inactive)
GI50 [4]: > 1230 µM (inactive)
GI50 [5]: > 1250 µM (inactive)
GI50 [6]: 1200 µM (inactive)
GI50 [7]: > 1250 µM (inactive)
GI50 [8]: > 1250 µM (inactive)
GI50 [9]: 218 µM (inactive)
GI50 [10]: > 1250 µM (inactive)
GI50 [11]: > 1250 µM (inactive)
GI50 [12]: > 1250 µM (inactive)
GI50 [13]: > 1250 µM (inactive)
GI50 [14]: > 1250 µM (inactive)
GI50 [15]: > 1250 µM (inactive)
GI50 [16]: 491 µM (inactive)
GI50 [17]: > 1250 µM (inactive)
GI50 [18]: > 1250 µM (inactive)
GI50 [19]: > 1250 µM (inactive)
GI50 [20]: > 1250 µM (inactive)

O=C1[C@@H]2C(c3ccccc3[N+](=O)[O-])=[N+](c3ccccc3)O[C@@H]2C(=O)N1c1ccc(Cc2ccc(N3C(=O)[C@H]4C(c5ccccc5[N+](=O)[O-])=[N+](c5ccccc5)O[C@H]4C3=O)cc2)cc1
GI50 [1]: > 100 µM (inactive)
GI50 [2]: > 100 µM (inactive)
GI50 [3]: > 100 µM (inactive)
GI50 [4]: > 100 µM (inactive)
GI50 [5]: > 100 µM (inactive)
GI50 [6]: > 100 µM (inactive)
GI50 [7]: > 100 µM (inactive)
GI50 [9]: > 100 µM (inactive)
GI50 [10]: > 100 µM (inactive)
GI50 [12]: > 100 µM (inactive)
GI50 [14]: > 100 µM (inactive)
GI50 [15]: > 100 µM (inactive)
GI50 [16]: > 100 µM (inactive)
GI50 [17]: > 100 µM (inactive)
GI50 [18]: > 100 µM (inactive)
GI50 [19]: > 100 µM (inactive)
GI50 [20]: > 100 µM (inactive)

COC(=O)/C=C1\CCC2[C@@H](C(=O)CC3[C@]2(C)CCC[C@@]3(C)C(=O)OC)C1C (some centres not stated)
GI50 [1]: 20.2 µM (inactive)
GI50 [2]: 3.93 µM (inactive)
GI50 [3]: 22.7 µM (inactive)
GI50 [4]: 18.5 µM (inactive)
GI50 [5]: 27.3 µM (inactive)
GI50 [6]: 15.1 µM (inactive)
GI50 [7]: 17.1 µM (inactive)
GI50 [9]: 28.9 µM (inactive)
GI50 [10]: 19.5 µM (inactive)
GI50 [12]: 19.7 µM (inactive)
GI50 [14]: 24 µM (inactive)
GI50 [15]: 17.9 µM (inactive)
GI50 [16]: 9.2 µM (inactive)
GI50 [17]: 16.3 µM (inactive)
GI50 [18]: 33 µM (inactive)
GI50 [19]: 19.2 µM (inactive)
GI50 [20]: 34.7 µM (inactive)

CN1C/C(=C\c2ccc(C(=O)O)cc2)C(=O)/C(=C/c2ccc(C(=O)O)cc2)C1
GI50 [1]: > 100 µM (inactive)
GI50 [2]: > 100 µM (inactive)
GI50 [3]: > 100 µM (inactive)
GI50 [4]: > 100 µM (inactive)
GI50 [5]: > 100 µM (inactive)
GI50 [6]: > 100 µM (inactive)
GI50 [7]: > 100 µM (inactive)
GI50 [9]: > 100 µM (inactive)
GI50 [10]: > 100 µM (inactive)
GI50 [12]: > 100 µM (inactive)
GI50 [14]: > 100 µM (inactive)
GI50 [15]: > 100 µM (inactive)
GI50 [16]: > 100 µM (inactive)
GI50 [17]: > 100 µM (inactive)
GI50 [18]: > 100 µM (inactive)
GI50 [19]: > 100 µM (inactive)
GI50 [20]: > 100 µM (inactive)

O=[N+]([O-])c1ccc(Cc2nc3ccccc3s2)cc1
GI50 [1]: > 100 µM (inactive)
GI50 [2]: 49.4 µM (inactive)
GI50 [3]: > 100 µM (inactive)
GI50 [4]: 38.9 µM (inactive)
GI50 [5]: > 100 µM (inactive)
GI50 [6]: 91.4 µM (inactive)
GI50 [7]: > 100 µM (inactive)
GI50 [9]: > 100 µM (inactive)
GI50 [10]: > 100 µM (inactive)
GI50 [12]: 74.1 µM (inactive)
GI50 [14]: 66.5 µM (inactive)
GI50 [15]: > 100 µM (inactive)
GI50 [16]: 33.3 µM (inactive)
GI50 [17]: > 100 µM (inactive)
GI50 [18]: > 100 µM (inactive)
GI50 [19]: 71.3 µM (inactive)
GI50 [20]: > 100 µM (inactive)

COc1cc([C@@H]2c3cc4c(cc3[C@@H](NC(=O)c3ccc(C#N)cc3)C3COC(=O)[C@@H]32)OCO4)cc(OC)c1O (some centres not stated)
GI50 [1]: < 0.01 µM (active)
GI50 [2]: 2.84 µM (inactive)
GI50 [3]: 1.85 µM (inactive)
GI50 [4]: 0.459 µM (active)
GI50 [5]: 0.979 µM (active)
GI50 [6]: 0.719 µM (active)
GI50 [7]: 1.02 µM (active)
GI50 [9]: 0.113 µM (active)
GI50 [10]: 1.81 µM (inactive)
GI50 [12]: 0.847 µM (active)
GI50 [14]: 1.25 µM (inactive)
GI50 [15]: 2.58 µM (inactive)
GI50 [16]: 0.0803 µM (active)
GI50 [17]: 2.43 µM (inactive)
GI50 [18]: 0.794 µM (active)
GI50 [19]: 1.26 µM (inactive)
GI50 [20]: 1.02 µM (active)

c1ccc(N2CCN(CCN3CCc4c([nH]c5ccccc45)C3c3cccnc3)CC2)cc1 (configuration not stated)
GI50 [1]: > 100 µM (inactive)
GI50 [2]: > 100 µM (inactive)
GI50 [3]: > 100 µM (inactive)
GI50 [4]: 46.8 µM (inactive)
GI50 [5]: > 100 µM (inactive)
GI50 [6]: 88.1 µM (inactive)
GI50 [7]: > 100 µM (inactive)
GI50 [9]: 89.1 µM (inactive)
GI50 [10]: > 100 µM (inactive)
GI50 [12]: > 100 µM (inactive)
GI50 [14]: > 100 µM (inactive)
GI50 [15]: > 100 µM (inactive)
GI50 [16]: > 100 µM (inactive)
GI50 [17]: > 100 µM (inactive)
GI50 [18]: > 100 µM (inactive)
GI50 [19]: > 100 µM (inactive)
GI50 [20]: > 100 µM (inactive)
